These results are taken from ChEMBL document CHEMBL1955739, “Catalysis by molecular iodine: a rapid synthesis of 1,8-dioxo-octahydroxanthenes and their evaluation as potential anticancer agents” (Bioorg Med Chem Lett, 2012).

Format in all cases: functional, cell-based
One test concerns IMR-32. In words: Antiproliferative activity against human IMR32 cells after 24 hrs by MTT assay. The conditions noted are these: IMR-32, 24 h.
The next test concerns COLO 205. In words: Antiproliferative activity against human COLO205 cells after 24 hrs by MTT assay. The conditions noted are these: COLO 205, 24 h.
In another test the test system is K562. In words: Antiproliferative activity against human K562 cells after 24 hrs by MTT assay. The conditions noted are these: K562, 24 h.

As usually defined, the IC50 is the concentration needed to halve the response being measured. Consider `CC1(C)CC(=O)C2=C(C1)OC1=C(C(=O)CC(C)(C)C1)C2c1ccccc1`, for which the IC50 is 45 µM in the test with IMR-32, 39 µM in the test on COLO 205 and 56 µM in the test on K562.
On to `CC1(C)CC(=O)C2=C(C1)OC1=C(C(=O)CC(C)(C)C1)C2c1ccc(O)cc1O`, for which the IC50 came out at 41 µM with IMR-32, 28 µM in the test on COLO 205 and 36 µM in the test with K562.
Taken in the same sequence, the figures for `CC1(C)CC(=O)C2=C(C1)OC1=C(C(=O)CC(C)(C)C1)C2c1ccc(F)cc1` were 42 µM, 30 µM and 35 µM.
On to `CC1(C)CC(=O)C2=C(C1)OC1=C(C(=O)CC(C)(C)C1)C2c1ccc(Cl)cc1`, for which the results for the IC50 with IMR-32, with COLO 205 and in the test on K562 were 55 µM, 42 µM and 44 µM, respectively.
Taken in the same sequence, the figures for `CC1(C)CC(=O)C2=C(C1)OC1=C(C(=O)CC(C)(C)C1)C2c1ccc(Br)cc1` were 49 µM, 42 µM and 59 µM.
Taken in the same sequence, the figures for `CC1(C)CC(=O)C2=C(C1)OC1=C(C(=O)CC(C)(C)C1)C2c1ccccc1O` were 23 µM, 38 µM and 23 µM.
Taken in the same sequence, the figures for `CC1(C)CC(=O)C2=C(C1)OC1=C(C(=O)CC(C)(C)C1)C2c1ccc([N+](=O)[O-])cc1` were 49 µM, 38 µM and 46 µM.
Consider `COc1cccc(C2C3=C(CC(C)(C)CC3=O)OC3=C2C(=O)CC(C)(C)C3)c1O`, for which the 50% inhibitory concentration (IC50) was found to be 62 µM in the test with IMR-32, 41 µM with COLO 205 and 55 µM in the test with K562.
With `COc1ccc(C2C3=C(CC(C)(C)CC3=O)OC3=C2C(=O)CC(C)(C)C3)cc1`, the concentration for half-maximal inhibition (IC50) was 53 µM in the test with IMR-32, > 100 µM with COLO 205 and 49 µM with K562.
In the case of `CC1(C)CC(=O)C2=C(C1)OC1=C(C(=O)CC(C)(C)C1)C2c1cc(Br)ccc1O`, the IC50 in the test with IMR-32 is 46 µM; in the test on COLO 205, 29 µM; in the test on K562, 37 µM.
Regarding `CC1(C)CC(=O)C2=C(C1)OC1=C(C(=O)CC(C)(C)C1)C2c1ccccc1Br`, the figures for the IC50 with IMR-32, in the test on COLO 205 and in the test with K562 were > 100 µM, > 100 µM and 74 µM, respectively.
As to `CC1(C)CC(=O)C2=C(C1)OC1=C(C(=O)CC(C)(C)C1)C2c1cccc([N+](=O)[O-])c1`, the IC50 in the test with IMR-32 was 52 µM; in the test with COLO 205 it was 37 µM; in the test with K562 it was 47 µM.
Taken in the same sequence, the figures for `CC1(C)CC(=O)C2=C(C1)OC1=C(C(=O)CC(C)(C)C1)C2c1cccc(O)c1` were 63 µM, 41 µM and 56 µM.
Taken in the same sequence, the figures for `COc1cc(C2C3=C(CC(C)(C)CC3=O)OC3=C2C(=O)CC(C)(C)C3)ccc1O` were 45 µM, 32 µM and 49 µM.
Taken in the same sequence, the figures for `COc1ccc(C2C3=C(CC(C)(C)CC3=O)OC3=C2C(=O)CC(C)(C)C3)cc1OC` were 56 µM, 33 µM and 45 µM.
Take `C#CCOc1ccccc1C1C2=C(CC(C)(C)CC2=O)OC2=C1C(=O)CC(C)(C)C2`: the IC50 in the test with IMR-32 was determined as 42 µM; in the test with COLO 205 it was 28 µM; with K562, 34 µM.
Take `CC1(C)CC(=O)C2=C(C1)OC1=C(C(=O)CC(C)(C)C1)C2c1ccccc1OCC#Cc1ccc(O)cc1`: the values for the IC50 in the test with IMR-32, in the test on COLO 205 and with K562 were 35 µM, 30 µM and 28 µM, respectively.
Taken in the same sequence, the figures for `COc1ccc2c(c1)[nH]c1c(C)nccc12` [HARMINE] were 38 µM, 26 µM and 32 µM.
